Data on three compounds can be found in patent publication US20110104695A1, “METHODS OF PREDICTING THERAPEUTIC EFFICACY OF CANCER THERAPY” (Epigenomics AG, priority 2009, published 2011).

The test system of series [1] is TFAP2E. The experiment in a line: TFAP2E mRNA expression by RT-PCR in CRC cell lines after drug treatment. The format is cell-based, human. The protocol:
Colon cancer cell lines LOVO and DLD-1 were obtained from the Deutsche Sammlung von Mikroorganismen und Zellkulturen GmbH (Braunschweig, Germany). SW480, HT-29, HCT-116 and CACO-2 colon cancer cell lines were obtained from ATCC (Washington, D.C., USA). Cells were cultured in 90% DMEM medium supplemented with 10% fetal bovine serum and 2 mM L-glutamine (Invitrogen, Karslruhe, Germany). CACO-2 cells were maintained in 80% DMEM with 20% FBS. […] Culture medium was changed daily for 3 days with recurrent 5-aza-2-deoxycytidine additions. After 3 days, the cells were harvested for total RNA extraction with the RNeasy Total RNA Mini Kit (Qiagen, Hilden, Germany).
The RNA and DNA extraction from cell lines or 10-25 mg of frozen tissue samples was carried out using the RNeasy Total RNA Mini Kit or the QIAmp DNA Mini Kit (Qiagen, Hilden, Germany) respectively, using the manufacturer's instructions.
Genomic DNA was treated with the Epitect Bisulfite Conversion Kit (Qiagen, Hilden, Germany) according to the manufacturer's instructions and then analyzed using the MethyLight technique or MS-HRM as previously described. Cutoff values giving the best discrimination between non-neoplastic mucosa and tumor samples were determined by receiver operating characteristic (ROC) analysis. The expression analysis of the mRNA was performed by RT-PCR with the Verso cDNA Kit (Thermo Fischer, Darmstadt, Germany) according to the manufacturer's instructions.

The test system of the next series is DKK4. In words: DKK4 mRNA expression in untransfected CRC cell lines. Format: cell-based, human. The following applies: SW480 and CACO-2 cells; after 5-azacytidine treatment. The procedure: (§1) Colon cancer cell lines LOVO and DLD-1 were obtained from the Deutsche Sammlung von Mikroorganismen und Zellkulturen GmbH (Braunschweig, Germany). SW480, HT-29, HCT-116 and CACO-2 colon cancer cell lines were obtained from ATCC (Washington, D.C., USA). Cells were cultured in 90% DMEM medium supplemented with 10% fetal bovine serum and 2 mM L-glutamine (Invitrogen, Karslruhe, Germany). CACO-2 cells were maintained in 80% DMEM with 20% FBS. Cells were seeded at a density of 1×10^6 cells/60-mm dish, after twenty-four hours incubated with 5-aza-cytidine (final concentration 10 μmol/L; Sigma, Munich, Germany) or the same amount of DMSO as control. Culture medium was changed daily for 3 days with recurrent 5-aza-2-deoxycytidine additions. After 3 days, the cells were harvested for total RNA extraction with the RNeasy Total RNA Mini Kit (Qiagen, Hilden, Germany).
(§2) Genomic DNA was treated with the Epitect Bisulfite Conversion Kit (Qiagen, Hilden, Germany) according to the manufacturer's instructions and then analyzed using the MethyLight technique or MS-HRM as previously described. Cutoff values giving the best discrimination between non-neoplastic mucosa and tumor samples were determined by receiver operating characteristic (ROC) analysis. […]

The subject of series [2] is TFAP2E. In words: MethyLight analysis of TFAP2E methylation in CRC cell lines. The settings on record: all CRC cell lines; after 5-azacytidine treatment. Format: cell-based, human. The procedure:
as §1
Primers for methylated TFAP2E covered CpGs in the second CpG island (FIG. 5). […]
as §2

For a further series, the system named is SW480 cells. In words: Cell survival after drug exposure (MTT assay), transfected SW480 cells. On the technique in general: Tetrazolium dyes change colour on reduction, which living cells bring about.
A further series has as its system colorectal cancer. The experiment in a line: Treatment response in colorectal cancer patient cohorts (RECIST or histology). The settings on record: Cohort IV (München), primary rectal cancer, chemoradiotherapy (intravenous 5-FU and 45.0 Gy), 68 patients, histological criteria. The format is in vivo, human.

Procedure for colorectal cancer: Samples were obtained from patients undergoing colorectal cancer surgery or chemotherapy at the University Hospitals in Munich, Mannheim, Bochum, Berlin and Dresden (all Germany). Tissues were obtained during resection of the primary tumor or by biopsy. […] Response to chemotherapy was assessed by RECIST criteria, response to chemoradiotherapy by histology as previously described.

With `CC(/C=C/C(=O)NO)=C\[C@@H](C)C(=O)c1ccc(N(C)C)cc1` [Trichostatin A], the “TFAP2E expression after treatment” value with TFAP2E [1] (CACO-2 cells, Trichostatin A treatment) is listed as “weak expression”. For the same compound, the “TFAP2E mRNA levels” value in the series on TFAP2E [1] (CRC cell lines except CACO-2, Trichostatin A treatment) is “no effect”.
In the case of `Nc1ncn([C@@H]2O[C@H](CO)[C@@H](O)[C@H]2O)c(=O)n1` [5-azacytidine], the “TFAP2E expression (RT-PCR)” value with TFAP2E [1] (CACO-2 and SW480 cells, 5-aza-cytidine 10 μmol/L, 3 days) is “showed expression after 5-aza-cytidine treatment only”. The DKK4 expression entry with DKK4 is “lost”. For the same compound, the “TFAP2E methylation (MethyLight)” value with TFAP2E [2] is reported as “declined”.
For the compound `O=c1[nH]cc(F)c(=O)[nH]1` [5-FU, 5-fluorouracil], in the series on SW480 cells (SW480 transfected with both pTFAP2E and pcDNA3-Dkk4), the “responsiveness to 5-FU” value is recorded as “intermediate responsiveness”. Besides, the “decrease in survival compared to controls” value in the series with SW480 cells (SW480 transiently transfected with pTFAP2E, 5-FU 50 μg/ml, after 2 days) was “about 20%”. Also, the “increase in survival compared to controls” value with SW480 cells (SW480 transiently transfected with pcDNA3-Dkk4, 5-FU 50 μg/ml, after 2 days) was “about 10%”. Also, the “patients classified as responders” value with colorectal cancer amounted to 47%.
